Reference: patent US20040009485A1, “Cellular arrays for the identification of altered gene expression” (priority 2002, published 2004)

Assays:
Assay type in all cases: cell-based, E. coli
[1] = tested on: Luxarray 0.5 reporter clones; experiment: Luxarray 0.5 solid phase perturbation with nalidixic acid (luminometer); settings: 1 and 5 μg/ml plates, 2 hrs
Procedure: A solid phase assay system consisting of reporter clones growing in the presence or absence of a perturbation, biological, environmental was developed. This was accomplished by growing the reporters on a porous membrane (Biodyne B, Nunc) seated on top of solid growth media in a culture dish (OmniTray, Nunc). Luminescence was measured either by a luminometer or by creating an image of the entire culture and quantitating the pixel density. Effects of perturbants can be determined by comparison of luminescence generated by treated and control cultures. Growth on the surface of the membrane allows the reporter assay to be moved between conditions as required. […]
Membranes were sterilized with UV illumination for 10 min then placed in contact with prewarmed media in a culture dish. […] Luminescence data was collected for each spot for 40 cycles of 20 min duration (overnight). […] Without exception, the signal strength measured corroborated the data obtained in liquid culture. […]
Next the system was evaluated for its ability to determine responses to perturbation, in this case, DNA damage caused by nalidixic acid Parental clone and two nonresponding reporters, osmY, and lacZYA, and three DNA damage responsive reporters, uvrA, recA, dinG, were chosen. […] The membranes were moved to new, pre-warmed plates containing varying amounts of nalidixic acid and light readings collected with an ML3000 luminometer. […]

[2] = tested on: luxCDABE gene fusions; experiment: Retest of nalidixic acid upregulated gene fusions in liquid medium; settings: for Liquid expt. NA/LB t = 2 hr: at conc of max induction; for # of conc with >1.5 fold up: seven conc 80-1.2 μg/ml
Procedure: Several concentrations of nalidixic acid were used because the differences in responses between liquid and solid growth were not known. Light production of 100 μl duplicate cultures at 37° C. was quantitated using a 96 well plate luminometer (Luminoskan Ascent, Labsystems). […] It should be noted that the liquid medium tests were not corrected for growth inhibition by nalidixic acid.

[3] = tested on: luxCDABE gene fusions in lexA+ host; experiment: Mitomycin C and nalidixic acid responses in lexA+ host; settings: for NA Ratio, 2 hr 10 ug/ml: lexA+ host
Procedure: (§1) In addition, the effect of a lexAind mutation was tested to determine if any of these were part of the SOS regulon. The expectation is that SOS regulon member will be induced by both nalidixic acid and mitomycin C in a manner that is dependent on lexA function (Walker, G. C., (1996) Escherichia coli and Salmonella: Cellular and Molecular Biology ASM Press). […] This is consistent with the observation of upregulation of the b1728 mRNA transcript upon mitomycin C treatment in a LexA dependent fashion (Fernández de Henestrosa et al. (2000). Mol. Microbiol. 35:1560-1572). Likewise, two Gene fusions, those to oraA and yigN were identified is new members of the SOS regulon (Table 16). […] Negative, non-DNA damage responsive gene fusions were also included (Table 16).

[4] = tested on: luxCDABE gene fusions in lexAind host; experiment: Mitomycin C and nalidixic acid responses in lexAind host; settings: for NA Ratio, 2 hr 10 ug/ml: lexAind host
Procedure: as §1

[5] = 1pxA 1pxB rnhB dnaE fusion (lux-a.pk061.c3)
[6] = dinG ybiB fusion (lux-a.pk0024.f5)
[7] = frvR frvX frvB frvA fusion (lux-a.pk046.e6)
[8] = yfhJ fdx hscA yfhE fusion (lux-a.pk0019.g2)
[9] = lacZ fusion (65.d4), negative control
[10] = yciG fusion (lux-a.pk006.b4), negative control

Compound: CCn1cc(C(=O)O)c(=O)c2ccc(C)nc21 [Nalidixic acid, nalidixic acid]
- bioluminescence on solid medium ([1]; SOS regulon reporters uvrA, recA, dinG): increased bioluminescence
- bioluminescence on solid medium ([1]; non-DNA damage responsive fusions osmY and lacZYA): unaffected
- Nal conc of max induction in liquid [2, 5]: 2.5 µg/mL
- Liquid expt. NA/LB t = 2 hr [2, 5]: 1.82
- # of conc with >1.5 fold up [2, 5]: 3
- Nal conc of max induction in liquid ([2]; b1728 fusion (lux-a.pk033.c5)): 5 µg/mL
- Liquid expt. NA/LB t = 2 hr ([2]; b1728 fusion (lux-a.pk033.c5)): 3.67
- # of conc with >1.5 fold up ([2]; b1728 fusion (lux-a.pk033.c5)): 7
- Nal conc of max induction in liquid ([2]; b1936 fusion (lux-a.pk0019.g1)): 10 µg/mL
- Liquid expt. NA/LB t = 2 hr ([2]; b1936 fusion (lux-a.pk0019.g1)): 2.34
- # of conc with >1.5 fold up ([2]; b1936 fusion (lux-a.pk0019.g1)): 6
- Nal conc of max induction in liquid [2, 6]: 5 µg/mL
- Liquid expt. NA/LB t = 2 hr [2, 6]: 4.18
- # of conc with >1.5 fold up [2, 6]: 6
- Nal conc of max induction in liquid ([2]; dinP fusion (lux-a.pk055.a3)): 5 µg/mL
- Liquid expt. NA/LB t = 2 hr ([2]; dinP fusion (lux-a.pk055.a3)): 7.60
- # of conc with >1.5 fold up ([2]; dinP fusion (lux-a.pk055.a3)): 7
- Nal conc of max induction in liquid [2, 7]: 20 µg/mL
- Liquid expt. NA/LB t = 2 hr [2, 7]: 1.46
- # of conc with >1.5 fold up [2, 7]: 0
- Nal conc of max induction in liquid ([2]; fusion (lux-a.pk0015.d6)): 20 µg/mL
- Liquid expt. NA/LB t = 2 hr ([2]; fusion (lux-a.pk0015.d6)): 2.71
- # of conc with >1.5 fold up ([2]; fusion (lux-a.pk0015.d6)): 6
- Nal conc of max induction in liquid ([2]; oraA fusion (lux-a.pk058.f5)): 10 µg/mL
- Liquid expt. NA/LB t = 2 hr ([2]; oraA fusion (lux-a.pk058.f5)): 7.19
- # of conc with >1.5 fold up ([2]; oraA fusion (lux-a.pk058.f5)): 7
- Nal conc of max induction in liquid ([2]; yaaF fusion (lux-a.pk031.e7)): 2.5 µg/mL
- Liquid expt. NA/LB t = 2 hr ([2]; yaaF fusion (lux-a.pk031.e7)): 1.85
- # of conc with >1.5 fold up ([2]; yaaF fusion (lux-a.pk031.e7)): 3
- Nal conc of max induction in liquid [2, 8]: 1.2 µg/mL
- Liquid expt. NA/LB t = 2 hr [2, 8]: 1.02
- # of conc with >1.5 fold up [2, 8]: 0
- Nal conc of max induction in liquid ([2]; yigN fusion (lux-a.pk046.f11)): 1.2 µg/mL
- Liquid expt. NA/LB t = 2 hr ([2]; yigN fusion (lux-a.pk046.f11)): 2.54
- # of conc with >1.5 fold up ([2]; yigN fusion (lux-a.pk046.f11)): 5
- NA Ratio, 2 hr 10 ug/ml [3, 5]: 2.87
- NA Ratio, 2 hr 10 ug/ml ([3]; b1728 fusion (lux-a.pk033.c5)): 5.17
- NA Ratio, 2 hr 10 ug/ml ([3]; b1936 fusion (lux-a.pk0019.g1)): 3.25
- NA Ratio, 2 hr 10 ug/ml [3, 6]: 4.03
- NA Ratio, 2 hr 10 ug/ml ([3]; fusion (lux-a.pk0015.d6)): 3.22
- NA Ratio, 2 hr 10 ug/ml [3, 9]: 0.81
- induction of b1728 promoter-luxCDABE fusion ([3]; lexA+ host (FIG. 9)): clearly induced
- NA Ratio, 2 hr 10 ug/ml ([3]; oraA fusion (lux-a.pk058.f5)): 11.06
- NA Ratio, 2 hr 10 ug/ml ([3]; yaaF fusion (lux-a.pk031.e7)): 1.53
- NA Ratio, 2 hr 10 ug/ml [3, 10]: 0.32
- NA Ratio, 2 hr 10 ug/ml ([3]; yigN fusion (lux-a.pk046.f11)): 5.74
- NA Ratio, 2 hr 10 ug/ml [4, 5]: 2.39
- NA Ratio, 2 hr 10 ug/ml ([4]; b1728 fusion (lux-a.pk033.c5)): 0.40
- NA Ratio, 2 hr 10 ug/ml ([4]; b1936 fusion (lux-a.pk0019.g1)): 1.55
- NA Ratio, 2 hr 10 ug/ml [4, 6]: 0.97
- NA Ratio, 2 hr 10 ug/ml ([4]; fusion (lux-a.pk0015.d6)): 2.29
- NA Ratio, 2 hr 10 ug/ml [4, 9]: 1.05
- induction of b1728 promoter-luxCDABE fusion ([4]; lexAind host strain (FIG. 9)): not induced
- NA Ratio, 2 hr 10 ug/ml ([4]; oraA fusion (lux-a.pk058.f5)): 1.06
- NA Ratio, 2 hr 10 ug/ml ([4]; yaaF fusion (lux-a.pk031.e7)): 1.19
- NA Ratio, 2 hr 10 ug/ml [4, 10]: 0.67
- NA Ratio, 2 hr 10 ug/ml ([4]; yigN fusion (lux-a.pk046.f11)): 0.59
